Experimental data reported in patent US9382197B2, “Substituted hydroxamic acids and uses thereof” (Millennium Pharmaceuticals, Inc., priority 2010, dated 2016).
pIC50: −log10 of the molar value.

Biological target: T1, purified human HDAC6 (Homo sapiens, UniProt Q9UBN7)
T1 construct: purchased BPS Bioscience 5006
T1 sequence (Q9UBN7 1-1215): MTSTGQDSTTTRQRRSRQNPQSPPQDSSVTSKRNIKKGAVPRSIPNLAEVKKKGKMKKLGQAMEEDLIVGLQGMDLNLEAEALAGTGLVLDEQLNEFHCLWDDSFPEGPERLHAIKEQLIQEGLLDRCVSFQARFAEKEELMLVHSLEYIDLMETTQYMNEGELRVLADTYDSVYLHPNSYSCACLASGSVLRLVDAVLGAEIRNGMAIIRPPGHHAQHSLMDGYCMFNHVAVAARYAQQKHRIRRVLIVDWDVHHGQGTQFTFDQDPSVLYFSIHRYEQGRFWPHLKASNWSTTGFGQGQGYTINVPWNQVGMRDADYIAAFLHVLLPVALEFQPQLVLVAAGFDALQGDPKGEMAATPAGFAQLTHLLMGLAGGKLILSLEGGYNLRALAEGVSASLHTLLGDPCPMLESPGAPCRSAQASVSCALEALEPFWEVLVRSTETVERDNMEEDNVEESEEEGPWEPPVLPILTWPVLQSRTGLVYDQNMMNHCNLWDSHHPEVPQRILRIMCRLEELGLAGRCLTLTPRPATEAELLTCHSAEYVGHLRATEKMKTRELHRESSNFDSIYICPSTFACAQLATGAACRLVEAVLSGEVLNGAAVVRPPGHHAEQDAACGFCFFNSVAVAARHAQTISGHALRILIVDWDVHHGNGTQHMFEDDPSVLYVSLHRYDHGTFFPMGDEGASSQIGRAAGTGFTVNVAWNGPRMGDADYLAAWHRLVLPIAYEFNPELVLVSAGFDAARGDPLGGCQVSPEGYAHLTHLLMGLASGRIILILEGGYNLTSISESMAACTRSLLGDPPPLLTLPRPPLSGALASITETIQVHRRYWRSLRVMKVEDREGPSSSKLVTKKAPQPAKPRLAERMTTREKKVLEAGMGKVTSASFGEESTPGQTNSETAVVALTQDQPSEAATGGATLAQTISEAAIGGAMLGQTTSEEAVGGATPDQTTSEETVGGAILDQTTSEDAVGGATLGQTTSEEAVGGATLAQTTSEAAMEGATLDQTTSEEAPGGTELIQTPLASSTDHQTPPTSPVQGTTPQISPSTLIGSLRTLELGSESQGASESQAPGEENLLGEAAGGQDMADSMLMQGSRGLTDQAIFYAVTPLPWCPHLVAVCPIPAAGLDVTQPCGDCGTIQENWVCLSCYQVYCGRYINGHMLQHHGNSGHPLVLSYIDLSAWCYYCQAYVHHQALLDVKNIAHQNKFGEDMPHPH
Assay: HDAC6 Enzyme Assay
Type: biochemical
In short: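 Deacetylated product quantified after trypsin digestion as released AMC (340/460 nm), following a 1 h, 30 °C reaction of human HDAC6 with Ac-RGK(Ac)-AMC peptide, quenched by trichostatin A. IC50 derived from DMSO-normalized curves.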

[1] = purified human HDAC6, substrate Ac-Arg-Gly-Lys(Ac)-AMC, 1 hour at 30° C., reported as bins

| pIC50 (bin: greater than 1 μM) | pIC50 [1] | Compound | other results |
| --- | --- | --- | --- |
|  | > 7.00 | C[C@@H](NC(=O)NC12CC3CC(CC(C3)C1)C2)c1ccc(C(=O)NO)cc1 [Compound I-374, 4-[(1R)-1-({[1-adamantylamino]carbonyl}amino)ethyl]-N-hydroxybenzamide] |  |
|  | > 7.00 | CC(C)C(NC(=O)c1ccc(-c2ccccc2)[nH]c1=O)c1ccc(C(=O)NO)cc1 (stereo not shown) [Compound I-375, N-(1-{4-[(hydroxyamino)carbonyl]phenyl}-2-methylpropyl)-2-oxo-6-phenyl-1,2-dihydropyridine-3-carboxamide] |  |
|  | 6.30 to 7.00 | CC(C)(C)c1ccc(C(=O)NC(c2ccc(C(=O)NO)cc2)C(C)(C)C)cc1 (stereo not shown) [Compound I-377, 4-tert-butyl-N-(1-{4-[(hydroxyamino)carbonyl]phenyl}-2,2-dimethylpropyl)benzamide] |  |
|  | > 7.00 | CC(NC(=O)C(C)(C)c1ccc(Cl)cc1)c1ccc(C(=O)NO)cc1 (stereo not shown) [Compound I-378, 4-(1-{[2-(4-chlorophenyl)-2-methylpropanoyl]amino}ethyl)-N-hydroxybenzamide] |  |
| < 6.00 |  | CC(NC(=O)CC1CC1)c1ccc(C(=O)NO)cc1 (stereo not shown) [Compound I-379, 4-{1-[(cyclopropylacetyl)amino]ethyl}-N-hydroxybenzamide] |  |
|  | 6.30 to 7.00 | CCC[C@@H](NC(=O)NC(C)(C)C)c1ccc(C(=O)NO)cc1 [Compound I-380, 4-((1R)-1-{[(tert-butylamino)carbonyl]amino}butyl)-N-hydroxybenzamide] |  |
|  | > 7.00 | CCc1ccc(NC(=O)NC(C)c2ccc(C(=O)NO)cc2)cc1 (stereo not shown) [Compound I-381, 4-[1-({[(4-ethylphenyl)amino]carbonyl}amino)ethyl]-N-hydroxybenzamide] |  |
|  | > 7.00 | Cc1ccc(NC(=O)NC(C)c2ccc(C(=O)NO)cc2)c(C)c1 (stereo not shown) [Compound I-383, 4-[1-({[(2,4-dimethylphenyl)amino]carbonyl}amino)ethyl]-N-hydroxybenzamide] |  |
|  | > 7.00 | CC(NC(=O)Nc1ccccc1-c1ccccc1)c1ccc(C(=O)NO)cc1 (stereo not shown) [Compound I-384, 4-(1-{[(biphenyl-2-ylamino)carbonyl]amino}ethyl)-N-hydroxybenzamide] |  |
|  | > 7.00 | CC(NC(=O)c1ccccc1)c1ccc(C(=O)NO)cc1 (stereo not shown) [Compound I-385, 4-[1-(benzoylamino)ethyl]-N-hydroxybenzamide] |  |
|  | 6.30 to 7.00 | CC(NC(=O)Nc1cc(Cl)cc(Cl)c1)c1ccc(C(=O)NO)cc1 (stereo not shown) [Compound I-388, 4-[1-({[(3,5-dichlorophenyl)amino]carbonyl}amino)ethyl]-N-hydroxybenzamide] |  |
|  | > 7.00 | CC(C)C(NC(=O)c1ccn(C)n1)c1ccc(C(=O)NO)cc1 (stereo not shown) [Compound I-389, N-(1-{4-[(hydroxyamino)carbonyl]phenyl}-2-methylpropyl)-1-methyl-1H-pyrazole-3-carboxamide] |  |
|  | 6.30 to 7.00 | CC(NC(=O)NC1CCCCC1)c1ccc(C(=O)NO)cc1 (stereo not shown) [Compound I-395, 4-(1-{[(cyclohexylamino)carbonyl]amino}ethyl)-N-hydroxybenzamide] |  |
|  | > 7.00 | Cc1cc(C)cc(NC(=O)NC(C)c2ccc(C(=O)NO)cc2)c1 (stereo not shown) [Compound I-397, 4-[1-({[(3,5-dimethylphenyl)amino]carbonyl}amino)ethyl]-N-hydroxybenzamide] |  |
|  | > 7.00 | CC(NC(=O)Nc1ccc(C(F)(F)F)cc1)c1ccc(C(=O)NO)cc1 (stereo not shown) [Compound I-399, N-hydroxy-4-{1-[({[4-(trifluoromethyl)phenyl]amino}carbonyl)amino]ethyl}benzamide] |  |
|  | > 7.00 | O=C(NO)c1ccc([C@H](NC(=O)c2cc3ccccc3o2)C(F)(F)F)cc1 [Compound I-400, N-((1S)-2,2,2-trifluoro-1-{4-[(hydroxyamino)carbonyl]phenyl}ethyl)-1-benzofuran-2-carboxamide] |  |
| < 6.00 |  | CC(NC(=O)Cc1ccc(F)cc1F)c1ccc(C(=O)NO)cc1 (stereo not shown) [Compound I-402, 4-(1-{[(2,4-difluorophenyl)acetyl]amino}ethyl)-N-hydroxybenzamide] |  |
| < 6.00 |  | C[C@@H](NS(=O)(=O)c1ccc(C(F)(F)F)cc1)c1cccc(C(=O)NO)c1 [Compound I-403, N-hydroxy-3-[(1R)-1-({[4-(trifluoromethyl)phenyl]sulfonyl}amino)ethyl]benzamide] |  |

The remaining lines, values behind:

| Compound | pIC50 (bin: greater than 1 μM) | pIC50 [1] | other results |
| --- | --- | --- | --- |
| CC(C)(C)C(NC(=O)C1CCCC1)c1ccc(C(=O)NO)cc1 (stereo not shown) [Compound I-373, 4-{1-[(cyclopentylcarbonyl)amino]-2,2-dimethylpropyl}-N-hydroxybenzamide] | < 6.00 |  |  |
| Cc1ccc2[nH]c(C(=O)NC(C)c3cccc(C(=O)NO)c3)c(C)c2c1 (stereo not shown) [Compound I-376, N-(1-{3-[(hydroxyamino)carbonyl]phenyl}ethyl)-3,5-dimethyl-1H-indole-2-carboxamide] |  | 6.30 to 7.00 |  |
| CC(C)C(NC(=O)C1CCCCCC1)c1ccc(C(=O)NO)cc1 (stereo not shown) [Compound I-382, N-(1-{4-[(hydroxyamino)carbonyl]phenyl}-2-methylpropyl)cycloheptanecarboxamide] |  | 6.30 to 7.00 |  |
| Cn1c(C(=O)NC(c2ccc(C(=O)NO)cc2)C(C)(C)C)cc(Cl)c1Cl (stereo not shown) [Compound I-386, 4,5-dichloro-N-(1-{4-[(hydroxyamino)carbonyl]phenyl}-2,2-dimethylpropyl)-1-methyl-1H-pyrrole-2-carboxamide] | < 6.00 |  |  |
| CCC[C@@H](NC(=O)C1(C)CCCCC1)c1ccc(C(=O)NO)cc1 [Compound I-387, N-hydroxy-4-((1R)-1-{[(1-methylcyclohexyl)carbonyl]amino}butyl)benzamide] |  | > 7.00 |  |
| CC(C)C(NC(=O)c1cc2ccccc2s1)c1cccc(C(=O)NO)c1 (stereo not shown) [Compound I-390, N-(1-{3-[(hydroxyamino)carbonyl]phenyl}-2-methylpropyl)-1-benzothiophene-2-carboxamide] | < 6.00 |  |  |
| Cn1c(C(=O)NC(c2ccc(C(=O)NO)cc2)C(C)(C)C)cc2oc(-c3ccccc3)cc21 (stereo not shown) [Compound I-392, N-(1-{4-[(hydroxyamino)carbonyl]phenyl}-2,2-dimethylpropyl)-4-methyl-2-phenyl-4H-furo[3,2-b]pyrrole-5-carboxamide] | < 6.00 |  |  |
| C[C@H](NC(=O)c1ccc(-c2ccccc2)cc1)c1cccc(C(=O)NO)c1 [Compound I-393, N-((1S)-1-{3-[(hydroxyamino)carbonyl]phenyl}ethyl)biphenyl-4-carboxamide] |  |  | IC50 (bin: greater than 500 nM and less than 1 μM (lower bound in nM, upper bound in μM)): 500 to 1000 nM |
| CC(C)(C)CC(=O)NC(c1ccc(C(=O)NO)cc1)C(C)(C)C (stereo not shown) [Compound I-396, 4-{1-[(3,3-dimethylbutanoyl)amino]-2,2-dimethylpropyl}-N-hydroxybenzamide] | < 6.00 |  |  |
| CC(NC(=O)c1cc2ccccc2o1)c1cccc(C(=O)NO)c1 (stereo not shown) [Compound I-401, N-(1-{3-[(hydroxyamino)carbonyl]phenyl}ethyl)-1-benzofuran-2-carboxamide] |  | 6.30 to 7.00 |  |
| COc1cc(C(=O)NO)ccc1C(C)NC(=O)c1cc2ccccc2s1 (stereo not shown) [Compound I-480, N-(1-{4-[(hydroxyamino)carbonyl]-2-methoxyphenyl}ethyl)-1-benzothiophene-2-carboxamide] |  | 6.30 to 7.00 |  |
| COc1cc(C(=O)NO)ccc1C(C)NC(=O)c1cccn1C (stereo not shown) [Compound I-481, N-(1-{4-[(hydroxyamino)carbonyl]-2-methoxyphenyl}ethyl)-1-methyl-1H-pyrrole-2-carboxamide] | < 6.00 |  |  |
| COc1cc(C(=O)NO)ccc1C(C)NC(=O)C12CC3CC(CC(C3)C1)C2 (stereo not shown) [Compound I-483, N-(1-{4-[(hydroxyamino)carbonyl]-2-methoxyphenyl}ethyl)adamantane-1-carboxamide] | < 6.00 |  |  |
| COc1cc(C(=O)NO)ccc1C(C)NC(=O)C(C)(C)C (stereo not shown) [Compound I-484, 4-{1-[(2,2-dimethylpropanoyl)amino]ethyl}-N-hydroxy-3-methoxybenzamide] | < 6.00 |  |  |
| Cc1cc(C(=O)NO)ccc1C(C)NC(=O)c1cc2ccccc2s1 (stereo not shown) [Compound I-485, N-(1-{4-[(hydroxyamino)carbonyl]-2-methylphenyl}ethyl)-1-benzothiophene-2-carboxamide] |  | 6.30 to 7.00 |  |
| Cc1cc(C(=O)NO)ccc1C(C)NC(=O)c1cccn1C (stereo not shown) [Compound I-486, N-(1-{4-[(hydroxyamino)carbonyl]-2-methylphenyl}ethyl)-1-methyl-1H-pyrrole-2-carboxamide] | < 6.00 |  |  |
